From paper PMC7806522, “Olfactory marker protein interacts with adenosine nucleotide derivatives” (Biochemistry and Biophysics Reports, 2021)

Experiments:
Assay type in all cases: biochemical
[1] = biological target: T1, Olfactory marker protein (OMP) (Mus musculus, UniProt Q64288); experiment: BRET competition against […] 8NBD-cAMP (U-shaped)
T1 construct: Rluc-OMP fusion (Rluc upstream of mouse OMP, NM_011010), from HEK293T lysate
T1 sequence (Q64288 2-163): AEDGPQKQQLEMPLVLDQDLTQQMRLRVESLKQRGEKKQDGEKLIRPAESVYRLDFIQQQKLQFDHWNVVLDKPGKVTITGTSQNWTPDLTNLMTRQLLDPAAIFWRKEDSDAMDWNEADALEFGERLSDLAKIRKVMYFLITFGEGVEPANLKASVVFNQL

[2] = biological target: T1, Olfactory marker protein (OMP); experiment: direct BRET binding, Rluc-OMP to fluorescent TNP-ATP, Rluc-alone background subtracted
[3] = biological target: T1, Olfactory marker protein (OMP); experiment: BRET competition against […] 8NBD-cAMP (U-shaped, peak at […])

## Nc1ncnc2c1ncn2[C@@H]1O[C@H](COP(=O)(O)OP(=O)(O)OP(=O)(O)O)[C@@H](O)[C@H]1O [ATP]
[1]
  EC50: 1 ± 0.15 µM

## Nc1ncnc2c1ncn2[C@@H]1O[C@H](COP(=O)(O)OP(=O)(O)OP(=O)(O)O)[C@H]2OC3(O[C@H]21)C([N+](=O)[O-])=CC(=[N+]([O-])[O-])C=C3[N+](=O)[O-] (stereo partly drawn) [TNP-ATP]
[2]
  EC50: 13 ± 1.5 µM

## Nc1ncnc2c1ncn2[C@@H]1O[C@H](COP(=O)(O)OP(=O)(O)O)[C@@H](O)[C@H]1O [ADP]
[3]
  concentration at peak BRET signal: 1 to 3 µM
